The supplement of paper PMC10307832

Assays:
Assay in all cases: relative viability (nuclei count vs DMSO), 5 days (fraction); higher = more cells survive
RU-SKI 43 + AZD7762 = compound: CC[C@@H](C)CNCC(=O)N1CCC2=C([C@@H]1COC3=CC=CC(=C3)C)C=CS2 [RU-SKI 43] + NC(=O)Nc1cc(-c2cccc(F)c2)sc1C(=O)N[C@H]1CCCNC1 [AZD7762] (partner 0.2 µM)
Method in brief: (§1)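 After 5 days of treatment, lung cancer cells in 1536-well plates were fixed and stained in a single step (final 0.05% Triton X-100, 1% formaldehyde, 1 ug/ml Hoechst) and their nuclei counted on 4× images. Treatment had been applied by pin tool the day after seeding as one drug alone or as a fixed anchor-drug dose with five library-drug doses (not always all listed) in √10 steps. Relative viability is the nuclei count of treated wells divided by that of vehicle wells, and values are medians of duplicate plates.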

RU-SKI 43 + Vorinostat = compound: CC[C@@H](C)CNCC(=O)N1CCC2=C([C@@H]1COC3=CC=CC(=C3)C)C=CS2 [RU-SKI 43] + O=C(CCCCCCC(=O)Nc1ccccc1)NO [Vorinostat] (partner 1 µM)
Method in brief: as §1

Irinotecan + Bortezomib = compound: CCc1c2c(nc3ccc(OC(=O)N4CCC(N5CCCCC5)CC4)cc13)-c1cc3c(c(=O)n1C2)COC(=O)[C@]3(O)CC [Irinotecan] + CC(C)C[C@H](NC(=O)[C@H](Cc1ccccc1)NC(=O)c1cnccn1)B(O)O [Bortezomib] (partner 0.002 µM)
Method in brief: as §1

Irinotecan + Alpelisib = compound: CCc1c2c(nc3ccc(OC(=O)N4CCC(N5CCCCC5)CC4)cc13)-c1cc3c(c(=O)n1C2)COC(=O)[C@]3(O)CC [Irinotecan] + Cc1nc(NC(=O)N2CCC[C@H]2C(N)=O)sc1-c1ccnc(C(C)(C)C(F)(F)F)c1 [Alpelisib] (partner 2 µM)
Method in brief: as §1

Cell Line | relative viability (RU-SKI 43 + AZD7762; first compound 0.1 µM) | relative viability (RU-SKI 43 + AZD7762; first compound 0.3162 µM) | relative viability (RU-SKI 43 + AZD7762; first compound 1 µM) | relative viability (RU-SKI 43 + AZD7762; first compound 3.162 µM) | relative viability (RU-SKI 43 + AZD7762; first compound 10 µM) | relative viability (RU-SKI 43 + Vorinostat; first compound 0.1 µM) | relative viability (RU-SKI 43 + Vorinostat; first compound 0.3162 µM) | relative viability (RU-SKI 43 + Vorinostat; first compound 1 µM) | relative viability (RU-SKI 43 + Vorinostat; first compound 3.162 µM) | relative viability (RU-SKI 43 + Vorinostat; first compound 10 µM) | relative viability (Irinotecan + Bortezomib; first compound 0.6325 µM) | relative viability (Irinotecan + Bortezomib; first compound 2 µM) | relative viability (Irinotecan + Bortezomib; first compound 6.325 µM) | relative viability (Irinotecan + Bortezomib; first compound 20 µM) | relative viability (Irinotecan + Alpelisib; first compound 0.6325 µM) | relative viability (Irinotecan + Alpelisib; first compound 2 µM) | relative viability (Irinotecan + Alpelisib; first compound 6.325 µM) | relative viability (Irinotecan + Alpelisib; first compound 20 µM)
LC-2-ad | 0.899 | 0.945 | 0.95 | 0.896 | 0.857 | 0.739 | 0.738 | 0.697 | 0.693 | 0.633 | 0.688 | 0.286 | 0.167 | 0.128 | 0.634 | 0.283 | 0.155 | 0.17
LCLC-97TM1 | 0.373 | 0.184 | 0.255 | 0.303 | 0.239 | 0.741 | 0.705 | 0.823 | 0.629 | 0.669 | 0.41 | 0.387 | 0.148 | 0.176 | 0.105 | 0.165 | 0.154 | 0.224
LCLC-103H | 0.832 | 0.804 | 0.788 | 0.821 | 0.763 | 0.804 | 0.821 | 0.855 | 0.781 | 0.729 | 0.813 | 0.76 | 0.518 | 0.557 | 0.812 | 0.345 | 0.33 | 0.368
LOU-NH91 | 0.789 | 0.74 | 0.85 | 0.831 | 0.74 | 1.01 | 0.871 | 1.03 | 0.979 | 0.902 | 0.486 | 0.442 | 0.359 | 0.413 | 0.663 | 0.596 | 0.422 | 0.301
LU99A | 0.255 | 0.377 | 0.264 | 0.267 | 0.343 | 0.476 | 0.558 | 0.479 | 0.447 | 0.359 | 0.42 | 0.326 | 0.18 | 0.249 | 0.219 | 0.23 | 0.225 | 0.219
LXF-289 | 1.13 | 1.11 | 1.14 | 1.09 | 1.03 | 0.725 | 0.784 | 0.796 | 0.634 | 0.84 | 0.896 | 0.987 | 0.263 | 0.205 | 0.994 | 0.504 | 0.273 | 0.214
NCI-H23 | 0.197 | 0.229 | 0.202 | 0.216 | 0.154 | 0.473 | 0.602 | 0.571 | 0.587 | 0.48 | 0.941 | 0.664 | 0.291 | 0.306 | 0.519 | 0.421 | 0.246 | 0.243
NCI-H322M | 0.57 | 0.561 | 0.474 | 0.624 | 0.465 | 0.83 | 0.925 | 0.911 | 0.998 | 0.782 | 1.34 | 0.859 | 0.564 | 0.347 | 0.576 | 0.37 | 0.282 | 0.395
NCI-H441 | 0.795 | 1.55 | 1.23 | 1.22 | 1.17 | 0.752 | 0.97 | 0.97 | 0.741 | 0.849 | 0.413 | 0.378 | 0.435 | 0.358 | 0.68 | 0.513 | 0.336 | 0.5
NCI-H460 | 0.533 | 0.756 | 0.787 | 0.519 | 0.638 | 0.81 | 1.3 | 0.787 | 0.75 | 0.565 | 0.677 | 0.353 | 0.0854 | 0.0632 | 0.461 | 0.339 | 0.0811 | 0.0821
NCI-H596 | 1.22 | 1.17 | 1.12 | 1.29 | 1.05 | 0.853 | 0.534 | 0.669 | 0.589 | 0.501 | 0.867 | 1.09 | 0.709 | 0.79 | 0.639 | 0.548 | 0.483 | 0.557
NCI-H647 | 0.358 | 0.553 | 0.583 | 0.44 | 0.499 | 0.543 | 0.948 | 0.573 | 0.731 | 0.527 | 0.76 | 0.462 | 0.227 | 0.103 | 0.816 | 0.435 | 0.197 | 0.202
NCI-H650 | 0.944 | 1.09 |  | 1.04 | 1.06 | 0.497 | 0.369 |  | 0.455 | 0.459 | 0.689 | 0.507 | 0.262 | 0.385 | 0.889 | 0.432 | 0.229 | 0.323
NCI-H727 |  | 0.707 | 0.724 | 0.638 | 0.543 |  | 1.13 | 1.13 | 1.08 | 1.23 | 0.358 | 0.57 | 0.463 | 0.464 | 0.324 | 0.433 | 0.354 | 0.422
NCI-H838 | 0.933 | 1.03 | 1 | 0.987 | 0.876 | 0.745 | 0.842 | 0.733 | 0.744 | 0.633 | 0.986 | 0.588 | 0.583 | 0.149 | 1.28 | 0.962 | 0.354 | 0.295
NCI-H1355 | 0.711 | 0.724 | 0.801 | 0.697 | 0.771 | 0.725 | 0.704 | 0.645 | 0.701 | 0.615 | 1.02 | 1.12 | 0.561 | 0.265 | 0.711 | 0.4 | 0.222 | 0.237
